“And” between values parts separate entries of the source, which are not always exact repeats. Identical values can stand only once.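 Values below derive from 48-hour exposures of cells grown in 96-well plates, with endpoints linearly interpolated between the two concentrations bracketing the appropriate inhibition level. The concentration for 50% growth inhibition is given as GI50. TGI: total growth inhibition.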 Bounds are passed on as bounds.

Among the data in PubChem BioAssay (NCI) are GI50 and TGI values, retold here.

The assay deals with MDA-MB-468 breast. Briefly: NCI tumour cell line growth inhibition, 48 h.
For the compound `CO[C@@H](C)Cn1c(=O)n(C)c2cnc3ccc(-c4cncc(C(C)(C)O)c4)cc3c21`, the GI50 is 0.132 µM and 0.0601 µM; the TGI was 0.661 µM and 0.472 µM.

With `CCC(=O)OCC1OC(n2cnc3c(=S)nc(N)[nH]c32)C(OC(=O)CC)C1OC(=O)CC` (stereo not drawn), the GI50 was 1.18 µM and the TGI was 7.45 µM.

`Fc1ccc(-c2cc3nc(C(Cl)Cl)nc(-c4cccs4)n3n2)cc1`: the GI50 is 0.219 µM and the TGI stood at 0.666 µM.

Turning to `CO[C@H]1/C=C/[C@@](C)(O)/C=C/C(=O)O[C@H](C)[C@@H](C)CC/C=C/1C`, the GI50 is 8.45 µM and the TGI turned out to be 31 µM.

As for `COc1cc(Nc2cc(O)c3c(=O)cc(-c4ccccc4)oc3c2)cc(OC)c1`, the GI50 was 0.279 µM.

Take `COc1ccc(-c2cc(C(=O)N3N=C(c4ccc(N)cc4)CC3c3ccc(Cl)cc3)c3ccccc3n2)cc1` (stereo not drawn): the GI50 is 2.95 µM and the TGI was more than 100 µM.

For the compound `NCCCNc1nc2ccccc2c2c(=O)c3cccc(F)c3sc12`, the GI50 is 1.62 µM and the TGI was 3.24 µM.

With `O=C(/C=C/c1c(-c2ccccc2)[nH]c2ccccc12)S(=O)(=O)c1ccccc1`, the GI50 was 1.98 µM and the TGI turned out to be 8.75 µM.

Regarding `CCOC(=O)c1cc(C(=O)c2cc(OC)cc(OC)c2)n2nc(C)ccc12`, the GI50 was 0.297 µM and the TGI was more than 100 µM.

On to `Cc1ccc(N(CC(=O)Nc2ccc(S(=O)(=O)NC3CCN(C)CC3)cc2)S(=O)(=O)c2ccc(Cl)cc2)cc1`, for which the GI50 was 1.91 µM and the TGI amounted to 4 µM.

Take `COc1cc(Nc2ncc3c(C)nc(-c4cccc(C(F)(F)F)c4)n3n2)cc(OC)c1OC`: the GI50 was 2.81 µM and the TGI amounted to 5.98 µM.

On to `COc1cc(C2CC(c3ccc(SC)cc3)=NN2C(C)=O)cc(OC)c1OC` (stereo not drawn), for which the GI50 was 3.71 µM and the TGI came to 26.2 µM.

For `COc1cc(C=C2c3ccccc3C(=O)c3ccccc32)ccc1OCCCCOc1cc2c(cc1OC)C(=O)N1CCCC1C=N2` (stereo not drawn), the GI50 is 0.287 µM and the TGI worked out at 1.19 µM.

In the case of `O=C1C(=O)/C(=C/c2ccccc2)CCCCCC/C1=C/c1ccccc1`, the GI50 is 3.62 µM and the TGI came out at 17.7 µM.

Turning to `CCN(Cc1cc(F)cc(F)c1)c1ccc(CO)c(Cl)c1`, the GI50 is 0.0187 µM and the TGI was 0.0505 µM.

Turning to `Cn1cc(-c2csc(-c3c[nH]c4ccc(F)cc34)n2)c2cccnc21`, the GI50 was 1.41 µM and the TGI came to 5.24 µM.

As to `CC(c1ccccc1)N1C(=O)CSC1=S` (stereo not drawn), the GI50 was 0.303 µM and the TGI is more than 100 µM.

With `COc1cc(/C=C/c2cc(/C=C/c3ccc(O)c(OC)c3)n(C(=O)Cc3ccccc3)n2)ccc1O`, the GI50 is 1.17 µM and the TGI stood at 4.58 µM.

Consider `CCCCN1C=CCN(CCCC)C1`, for which the GI50 is 18.6 µM and the TGI turned out to be 61.3 µM.

With `CCCCc1ccc(NS(=O)(=O)c2cc3c4c(c2)CCN4C(=O)CC3)cc1`, the GI50 was 4.5 µM and the TGI turned out to be 94.2 µM.

For `COc1ccc(/C=C/C(=O)c2c(O)c(C)c(O)c3c2OC2=CC(O)=C(C(C)=O)C(=O)[C@]23C)cc1`, the GI50 was 1.35 µM and the TGI turned out to be 5.01 µM.

Regarding `Oc1ccc(OCCOc2ccc(O)cc2)cc1`, the GI50 is 32.7 µM and the TGI was more than 100 µM.

In the case of `O=C1/C(=C/c2ccccc2[N+](=O)[O-])Oc2ccc(O)cc21`, the GI50 is 1.81 µM and the TGI was determined as 3.85 µM.

For the compound `COc1cc2c(Oc3ccc4[nH]c(C)cc4c3F)ncnc2cc1OCCCN1CCCC1`, the GI50 is 1.32 µM and the TGI was found to be 3.06 µM.

With `COc1cc(/C=C/c2cc(/C=C/c3ccc(O)c(OC)c3)n(C(N)=O)n2)ccc1O`, the GI50 is 0.298 µM and the TGI came to 1.52 µM.

Turning to `COc1ccc([C@H]2[C@H](O)C(=O)N2c2cc(OC)c(OC)c(OC)c2)cc1`, the GI50 is less than 0.01 µM and the TGI was more than 100 µM.

For the compound `O=[N+]([O-])c1cc([N+](=O)[O-])c(NN=C(c2ccc(O)cc2)c2ccc(O)cc2)cc1Cl`, the GI50 was 0.247 µM and the TGI was 0.55 µM.
